Measured values as given in patent US20210352950A1 (priority 2019, published 2021).

Tests used:
ROS in HCT116 cells = assay: CellROX reactive oxygen species measurement; type: cell-based, human; conditions: HCT116, vitamin C 1 mM as single intervention, 30 minutes
Method: Intracellular reactive-oxygen species (ROS) were measured using the CellROX oxidative stress reagents (Life Technologies, Cat. #: 10422). CellROX fluorogenic probe is designed to measure reactive-oxygen species (ROS) in live cells. […] For ROS measurement, cells were seeded in 10 cm petri dish (4×10^5 cells in CTR medium). After 24 hours cells were rinsed twice in 1×PBS and CTR or STS medium was added. 24 hours later, cells were trypsinized, resuspended in their respective media, and treated with 1 mM sodium ascorbate and 1 μM CellROX deep red reagent in the dark, for 30 minutes at 37° C. and 5% CO2. Then, fluorescence was immediately analyzed by flow cytometry (Attune NxT flow cytometer). Data were processed by Kaluza analysis software (Beckman coulter, version 2.0). Data were expressed as fold change of the median fluorescent intensity (MFI) of each treated sample versus the MFI of control sample.

[1] = tested on: KRAS wild type cell lines (SW48, HT29, PC-3, COV362), normal colon cell line (CCD841CoN) and normal fibroblasts (BJ); assay: Muse cell viability assay, KRAS wild type and normal cells; type: cell-based; conditions: single agent or in combination with STS condition
[2] = tested on: Phosphorylated histone H2AX; assay: Histone H2AX phosphorylation (DNA damage, western blot); type: cell-based, human and murine; conditions: HCT116 and CT26.WT, STS 24 hours + vitamin C 350 μM 3 hours
Method: (§1) Cells were washed twice in ice-cold PBS and lysates were prepared in RIPA lysis buffer (50 mM Tris HCl pH 7.4, 150 mM NaCl, 1% NP-40, 0.25% deoxycholic acid, 1 mM EDTA) supplemented with protease and phosphatase inhibitors (protease inhibitor cocktail set III EDTA-free, Calbiochem, Cat. #: S39134; PhosStop, Roche), Samples were sonicated (bioruptor plus, diogenode) and centrifuged at 16.1 g for 30 minutes at 4° C. Tumor tissues were collected and snap frozen in liquid nitrogen immediately after mice were sacrificed, and stored in -80° C. until use. […] Protein concentrations were determined by BCA assay (Thermo Fisher Scientific, Cat. #: 23225). Proteins were diluted in 1× Laemmli sample buffer, boiled at 95° C. for 5 minutes and 30 μg of total proteins were separated by using SDS-PAGE and analyzed by western blotting by standard procedures. […] Membranes were incubated overnight at 4° C. with gentle shaking with the following primary antibodies: […] ADI-SPA894), FTH (1:1000, Cell Signaling, Cat. #: 3998), AMPK (1:1000, Cell Signaling, Cat. #: 2532), phospho-[…] AMPK (1:1000, Cell Signaling, Cat. #: 2535), eIF2a (1:1000, Cell signaling, Cat. #: 5324), phospho […] eIF2a (1:1000, Cell signaling, Cat. #: 3597), AKT (1:1000, Cell Signaling, Cat. #: 9272), phospho-[…] […] Bands intensity was quantified with NIH Image J software (version 1.48v).

[3] = tested on: phospho-eIF2a (serine 51); assay: eIF2a phosphorylation (western blot); type: cell-based, human; conditions: HCT116, STS 24 hours + vitamin C 350 μM 3 hours
Method: as §1

[4] = tested on: KRAS mutant cancer cells (HCT116, DLD-1, CT26.WT, H23, H727, PANC1); assay: Muse cell viability assay, KRAS mutant panel; type: cell-based, human and murine; conditions: CTR condition, vitamin C ≥0.3 mM, 24 hours
phospho-AKT (serine 473) = assay: AKT phosphorylation (western blot); type: cell-based, human; conditions: HCT116, STS 24 hours + vitamin C 350 μM 3 hours
Method: as §1

[5] = tested on: phospho-AMPK (threonine 172); assay: AMPK phosphorylation (western blot); type: cell-based, human; conditions: HCT116, STS 24 hours + vitamin C 350 μM 3 hours
Method: as §1

HO-1 [6] = assay: HO-1 protein expression in grafted HCT116 tumors; type: in vivo, mouse; conditions: ad libitum or FMD cycles, vitamin C 4 g/kg i.p. twice a day
HO-1 [7] = assay: HO-1 protein expression in CT26.WT (western blot); type: cell-based, murine; conditions: vitamin C 350 μM 3 hours
Method: as §1

[8] = tested on: ferrous ion (Fe2+) in HCT116 cells; assay: Intracellular ferrous iron detection (Iron Assay Kit); type: cell-based, human; conditions: HCT116, STS 24 hours + vitamin C 350 μM 3 hours, compared to all other conditions
Method: Intracellular ferrous ions were measured using Iron Assay Kit (Cat. #: ab83366). Ferrous ions (Fe^2+), but not ferric ions (Fe^3+) specifically reacts with […] (an iron chromogen) producing a stable colored complex, whose absorbance is measured at 593 nm. For Fe^2+ measurement experiment, cells were seeded in 10 cm petri dish (4×10^5 cells) in CTR medium. After 24 hours cells were rinsed twice in 1×PBS and CTR or STS medium was added. […] Next, cells were lysed in iron assay buffer and intracellular ferrous iron level was measured according to manufacturer protocol. Absorbance was recorded at the wavelength of 593 nm using a microplate reader (Infinite M200 TECAN). Data are expressed as fold change versus control sample.

[9] = tested on: HCT116 subcutaneous tumors; assay: HCT116 xenograft tumor volume; type: in vivo, mouse; conditions: NSG mice
[10] = intraperitoneal injection; Chen et al., 2007; 2008; cited from earlier work
FTH = FTH protein expression in cells (western blot); type: cell-based, human and murine; conditions: HCT116, CT26.WT, STS 24 hours + vitamin C 350 μM 3 hours
Method: as §1

HCT116 cells = assay: Muse cell viability assay (percentage of dead cells); conditions: HCT116, CTR medium, vitamin C ≥0.3 mM (350 μM), 24 hours

## O=C1O[C@H]([C@@H](O)CO)C(O)=C1O [vitamin C, ascorbic acid]
ROS in HCT116 cells
  ROS levels: increase ROS levels
[1]
  sensitivity to vitamin C treatment: not sensitive
[2]
  DNA damage measured by phosphorylation level of histone H2AX: strongly induced DNA damage
[3]
  eIF2a phosphorylation level: significantly induced the phosphorylation level
[4]
  sensitivity to vitamin C: modest sensitivity
phospho-AKT (serine 473)
  AKT phosphorylation level (downregulated upon STS): potentiated even further
[5]
  AMPK phosphorylation level: strongly up-regulated AMPK phosphorylation level
HO-1 [6]
  HO-1 protein expression level in grafted tumors: HO-1 up-regulation
HO-1 [7]
  HO-1 protein expression level: up-regulates HO-1 expression level
[8]
  ferrous ion (Fe2+) level: significantly higher
[9]; 3-days FMD every week or vitamin C 4 g/kg i.p. twice a day
  tumor progression, single interventions: delayed tumor progression
[9]; 3 cycles of fasting (2 days, water only) + vitamin C 4 g/kg i.p. twice a day
  anti-cancer effect combined with fasting cycles: significantly enhanced
[10]
  vitamin C level reached by parenteral (intraperitoneal) administration: 3 mM
FTH
  FTH protein expression level: reduces FTH protein expression level
HCT116 cells
  cell death: able to induce cell death
